Measurements published in US6737383B1, “Herbicidal oxadiazolidines” (priority 1999, dated 2004).

Experiments:
velvetleaf = assay: Test B pre/postemergence velvetleaf; type: in vivo, Abutilon theophrasti
Summary of the method: (§1)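 Response is a visual 0-to-10 score relative to untreated plants, where 0 means no effect and 10 means complete control, taken twelve to sixteen days after application. Treatments went onto soil at planting and onto foliage of 1- to 4-leaf plants, using a surfactant-containing non-phytotoxic solvent.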

wheat = assay: Test B pre/postemergence wheat; type: in vivo, Triticum aestivum
Summary of the method: as §1

pigweed = assay: Test B pre/postemergence pigweed; type: in vivo, Amaranthus retroflexus
Summary of the method: as §1

surinam grass = assay: Test B pre/postemergence surinam grass; type: in vivo, Brachiaria decumbens
Summary of the method: as §1

sugar beet = assay: Test B pre/postemergence sugar beet; type: in vivo, Beta vulgaris
Summary of the method: as §1

morningglory = assay: Test B pre/postemergence morningglory; type: in vivo, Ipomoea hederacea
Summary of the method: as §1

bamyardgrass = assay: Test B flood test barnyardgrass; type: in vivo, Echinochloa crus-galli
Summary of the method: (§2)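 Read-out is a visual response score from 0 (no effect) to 10 (complete control), assigned by comparison with untreated controls. Treatment was applied at the 2-leaf stage, and plants stayed in the greenhouse for twelve to sixteen days before scoring.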

giant foxtail = assay: Test B pre/postemergence giant foxtail; type: in vivo, Setaria faberii
Summary of the method: as §1

blackgrass = assay: Test B pre/postemergence blackgrass; type: in vivo, Alopecurus myosuroides
Summary of the method: as §1

rice = assay: Test B flood test rice; type: in vivo, Oryza sativa
Summary of the method: as §2

crabgrass = assay: Test B pre/postemergence crabgrass; type: in vivo, Digitaria sanguinalis
Summary of the method: as §1

duck salad = assay: Test B flood test duck salad; type: in vivo, Heteranthera limosa
Summary of the method: as §2

cocklebur = assay: Test B pre/postemergence cocklebur; type: in vivo, Xanthium strumarium
Summary of the method: as §1

purple nutsedge = assay: Test B pre/postemergence purple nutsedge; type: in vivo, Cyperus rotundus
Summary of the method: as §1

wild oat = assay: Test B pre/postemergence wild oat; type: in vivo, Avena fatua
Summary of the method: as §1

[1] = Postemergence, Rate 250 g/ha, scale 0 to 10
[2] = Postemergence, Rate 500 g/ha, scale of 0 to 10 where 0 is no effect and 10 is complete control
[3] = Postemergence, Rate 1000 g/ha, scale 0 to 10 (0 no effect, 10 complete control)
[4] = Preemergence, Rate 125 g/ha, scale of 0 to 10 where 0 is no effect and 10 is complete control
[5] = Preemergence, Rate 250 g/ha, scale 0 to 10, 0 is no effect, 10 is complete control
[6] = Preemergence, Rate 500 g/ha, scale 0 to 10, 0 is no effect, 10 is complete control
[7] = Rate 125 g/ha, Postemergence, scale 0 to 10, 0 is no effect, 10 is complete control
[8] = Rate 1000 g/ha, Preemergence, scale 0 to 10 (0 no effect, 10 complete control)
[9] = Pre-emergence, Rate 1000 g/ha, scale 0 to 10 (0 no effect, 10 complete control)
[10] = Rate 125 g/ha, under heading Pre-emergence, flood test species, visual evaluation after twelve to sixteen days
[11] = Rate 250 g/ha, Pre-emergence (flood test species), scale 0 to 10, 0 is no effect, 10 is complete control
[12] = Rate 500 g/ha, Pre-emergence, flood test species, scale 0 to 10 (0 no effect, 10 complete control)

CCOP(=O)(Cn1c(=O)on(C(=O)N(c2ccccc2)C(C)C)c1=O)OCC [Compound 447]
Velvetleaf plant response rating (velvetleaf; [1]): 0
Velvetleaf plant response rating (velvetleaf; [2]): 0
Velvetleaf plant response rating (velvetleaf; [3]): 0
Plant response rating, Velvetleaf (velvetleaf; [4]): 0
Velvetleaf plant response rating (velvetleaf; [5]): 0
Velvetleaf plant response rating (velvetleaf; [6]): 0
Velvetleaf plant response rating (velvetleaf; [7]): 0
Plant response rating, Velvetleaf (velvetleaf; [8]): 0
Wheat plant response rating (wheat; [1]): 0
Wheat plant response rating (wheat; [2]): 0
Wheat plant response rating (wheat; [3]): 0
Plant response rating, Wheat (wheat; [4]): 0
Wheat plant response rating (wheat; [5]): 0
Wheat plant response rating (wheat; [6]): 0
Wheat plant response rating (wheat; [7]): 0
Plant response rating, Wheat (wheat; [8]): 0
Redroot pigweed plant response rating (pigweed; [1]): 0
Redroot pigweed plant response rating (pigweed; [2]): 0
Redroot pigweed plant response rating (pigweed; [3]): 0
Plant response rating, Redroot pigweed (pigweed; [4]): 0
Redroot pigweed plant response rating (pigweed; [5]): 0
Redroot pigweed plant response rating (pigweed; [6]): 0
Redroot pigweed plant response rating (pigweed; [7]): 0
Plant response rating, Redroot pigweed (pigweed; [8]): 0
B. signalgrass plant response rating (surinam grass; Postemergence, Rate 250 g/ha, scale 0 to 10, 0 no effect, 10 complete control): 0
B. signalgrass plant response rating (surinam grass; [2]): 0
B. signalgrass plant response rating (surinam grass; [3]): 2
Plant response rating, B. signalgrass (surinam grass; [4]): 0
B. signalgrass plant response rating (surinam grass; [5]): 0
B. signalgrass plant response rating (surinam grass; [6]): 0
B. signalgrass plant response rating (surinam grass; [7]): 0
Plant response rating, B. signalgrass (surinam grass; [8]): 6
Sugarbeets plant response rating (sugar beet; [1]): 0
Sugarbeets plant response rating (sugar beet; [2]): 0
Sugarbeets plant response rating (sugar beet; [3]): 0
Plant response rating, Sugarbeets (sugar beet; [4]): 0
Sugarbeets plant response rating (sugar beet; [5]): 0
Sugarbeets plant response rating (sugar beet; [6]): 0
Sugarbeets plant response rating (sugar beet; [7]): 0
Plant response rating, Sugarbeets (sugar beet; [8]): 0
Morningglory plant response rating (morningglory; [1]): 4
Morningglory plant response rating (morningglory; [2]): 7
Morningglory plant response rating (morningglory; [3]): 10
Plant response rating, Morningglory (morningglory; [4]): 0
Morningglory plant response rating (morningglory; [5]): 0
Morningglory plant response rating (morningglory; [6]): 0
Morningglory plant response rating (morningglory; [7]): 2
Plant response rating, Morningglory (morningglory; [8]): 2
Barnyardgrass plant response rating (bamyardgrass; [9]): 0
Barnyardgrass plant response rating (0 to 10 scale, 0 is no effect, 10 is complete control) (bamyardgrass; [10]): 0
Barnyardgrass plant response rating (bamyardgrass; [11]): 0
Barnyardgrass plant response rating (bamyardgrass; [12]): 0
Giant foxtail plant response rating (giant foxtail; [1]): 0
Giant foxtail plant response rating (giant foxtail; [2]): 0
Giant foxtail plant response rating (giant foxtail; [3]): 0
Plant response rating, Giant foxtail (giant foxtail; [4]): 3
Giant foxtail plant response rating (giant foxtail; [5]): 7
Giant foxtail plant response rating (giant foxtail; [6]): 8
Giant foxtail plant response rating (giant foxtail; [7]): 0
Plant response rating, Giant foxtail (giant foxtail; [8]): 10
Blackgrass plant response rating (blackgrass; [1]): 0
Blackgrass plant response rating (blackgrass; [2]): 2
Blackgrass plant response rating (blackgrass; [3]): 7
Plant response rating, Blackgrass (blackgrass; [4]): 0
Blackgrass plant response rating (blackgrass; [5]): 0
Blackgrass plant response rating (blackgrass; [6]): 0
Blackgrass plant response rating (blackgrass; [7]): 0
Plant response rating, Blackgrass (blackgrass; [8]): 3
Rice plant response rating (rice; [9]): 0
Rice plant response rating (0 to 10 scale, 0 is no effect, 10 is complete control) (rice; [10]): 0
Rice plant response rating (rice; [11]): 0
Rice plant response rating (rice; [12]): 0
Crabgrass plant response rating (crabgrass; [1]): 0
Crabgrass plant response rating (crabgrass; [2]): 0
Crabgrass plant response rating (crabgrass; [3]): 0
Plant response rating, Crabgrass (crabgrass; [4]): 3
Crabgrass plant response rating (crabgrass; [5]): 8
Crabgrass plant response rating (crabgrass; [6]): 9
Crabgrass plant response rating (crabgrass; [7]): 0
Plant response rating, Crabgrass (crabgrass; [8]): 9
Ducksalad plant response rating (duck salad; [9]): 0
Ducksalad plant response rating (0 to 10 scale, 0 is no effect, 10 is complete control) (duck salad; [10]): 0
Ducksalad plant response rating (duck salad; [11]): 0
Ducksalad plant response rating (duck salad; [12]): 0
Cocklebur plant response rating (cocklebur; [1]): 0
Cocklebur plant response rating (cocklebur; [2]): 0
Cocklebur plant response rating (cocklebur; [3]): 0
Plant response rating, Cocklebur (cocklebur; [4]): 0
Cocklebur plant response rating (cocklebur; [5]): 0
Cocklebur plant response rating (cocklebur; [6]): 0
Cocklebur plant response rating (cocklebur; [7]): 0
Plant response rating, Cocklebur (cocklebur; [8]): 0
Nutsedge plant response rating (purple nutsedge; [1]): 0
Nutsedge plant response rating (purple nutsedge; [2]): 0
Nutsedge plant response rating (purple nutsedge; [3]): 0
Plant response rating, Nutsedge (purple nutsedge; [4]): 0
Nutsedge plant response rating (purple nutsedge; [5]): 0
Nutsedge plant response rating (purple nutsedge; [6]): 0
Nutsedge plant response rating (purple nutsedge; [7]): 0
Plant response rating, Nutsedge (purple nutsedge; [8]): 0
Wild oats plant response rating (wild oat; [1]): 0
Wild oats plant response rating (wild oat; [2]): 0
Wild oats plant response rating (wild oat; [3]): 0
Plant response rating, Wild oats (wild oat; [4]): 0
Wild oats plant response rating (wild oat; [5]): 2
Wild oats plant response rating (wild oat; [6]): 7
Wild oats plant response rating (wild oat; [7]): 0
Plant response rating, Wild oats (wild oat; [8]): 10
